This is an account of results in the NIST ThermoML archive (doi:10.1021/je3013414).

Numbers after ± are expanded uncertainties.

A short description of series [1]: refractive index (Na D-line) (dimensionless). The settings on record: 298.15 K; 101.33 kPa; Liquid; Standard Abbe refractometry.
For series [2] the following is noted: 101.33 kPa, Liquid, Vibrating tube method.

For `CCCCn1cc[n+](C)c1.F[P-](F)(F)(F)(F)F` [1-butyl-3-methylimidazolium hexafluorophosphate], the refractive index in series [1] is reported as 1.4106 ± 0.0005. The mass density is reported as 1361.3 ± 1.7 kg/m3 in series [2] (303.15 K); 1353 ± 1.6 kg/m3 in series [2] (313.15 K); 1344.8 ± 1.6 kg/m3 in series [2] (323.15 K); 1336.7 ± 1.6 kg/m3 in series [2] (333.15 K); 1328.5 ± 1.6 kg/m3 in series [2] (343.15 K); 1320.5 ± 1.6 kg/m3 in series [2] (353.15 K). Besides, in series [2] (363.15 K), the mass density is 1312.4 ± 1.5 kg/m3.

For `CCOS(=O)(=O)[O-].CCn1cc[n+](C)c1` [1-ethyl-3-methylimidazolium ethyl sulfate], in series [1], the refractive index is 1.4106 ± 0.0005. The mass density in series [2] (303.15 K) stood at 1233.7 ± 1.4 kg/m3; in series [2] (313.15 K), 1226.9 ± 1.3 kg/m3; in series [2] (323.15 K) it was 1220.2 ± 1.3 kg/m3; in series [2] (333.15 K) it was 1213.6 ± 1.3 kg/m3; in series [2] (343.15 K), 1207 ± 1.3 kg/m3; in series [2] (353.15 K) it was 1200.4 ± 1.3 kg/m3. Moreover, the mass density in series [2] (363.15 K) is reported as 1193.9 ± 1.3 kg/m3.
